Measurements as given in patent US11820754B2, “Polymorphs of an SSAO inhibitor” (Eli Lilly and Company, priority 2020, dated 2023).

Experiment: Competitive slurry study (Form I vs Form II, XRPD of wet cake)
Format: physicochemical
Conditions: for XRPD Pattern (wet cake): 800 rpm
Procedure: XRPD analyses were performed with techniques and equipments known in the art with Cu K-alpha radiation.
Competitive slurry experiments were performed at 25° C. and 50° C. Saturated solutions of Form I in ACN and acetone at 25° C. and 50° C. were prepared. About 15 mg of Form I and Form II were weighted into the solutions respectively, and the suspensions were slurried for 1 or 3 days at 800 rpm.

Conversion of form mixture in slurry, as determined by XRPD (25 °C and 50 °C, ACN and acetone, slurried 1 or 3 days)	XRPD Pattern (wet cake) (ACN, 25 °C, slurry time 1 day)	XRPD Pattern (wet cake) (ACN, 25 °C, slurry time 3 days)	XRPD Pattern (wet cake) (ACN, 50 °C, slurry time 1 day)	XRPD Pattern (wet cake) (Acetone, 25 °C, slurry time 1 day)	XRPD Pattern (wet cake) (Acetone, 50 °C, slurry time 1 day)	XRPD Pattern (wet cake) (Acetone, 50 °C, slurry time 3 days)	Relative thermodynamic stability of polymorphic forms (versus Form I, at a temperature of 50 °C or below)	Compound
completely converted to Form II	Form I + Form II	Form II	Form II	Form II	Form I + Form II	Form II	–	COC1CCN(c2ncc(OC/C(=C/F)CN)cn2)CC1.Cc1ccc(S(=O)(=O)O)cc1 [Form I + Form II]
–	–	–	–	–	–	–	more thermodynamically stable	COC1CCN(c2ncc(OC/C(=C/F)CN)cn2)CC1.Cc1ccc(S(=O)(=O)O)cc1 [Form II, (2E)-3-fluoro-2-({[2-(4-methoxypiperidin-1-yl)pyrimidin-5-yl]oxy}methyl)prop-2-en-1-aminium 4-methylbenzenesulfonate]
